Results as given in the NIST ThermoML archive (doi:10.1016/j.jct.2006.01.009).
Numbers after ± are expanded uncertainties.

Experiments:
[1] = 308.15 K, 101 kPa, Liquid; for speed of sound: Linear variable-path acoustic interferometer
[2] = xn = mol fraction of the nth substance listed; settings: 308.15 K, 101 kPa, Liquid; for speed of sound: Linear variable-path acoustic interferometer

CC(=O)c1ccc(C)cc1 [4'-methylacetophenone]
mass density [1]: 996.3 ± 2.5 kg/m3
speed of sound [1]: 1438 ± 8.8 m/s

CC#N [acetonitrile] + CC(=O)c1ccc(Cl)cc1
speed of sound ([2]; x2 = 0): 1239 ± 7.6 m/s
mass density ([2]; x2 = 0): 770.6 ± 6.4 kg/m3

CC(=O)c1ccccc1 [acetophenone] + CC#N
speed of sound ([2]; x1 = 0.048): 1254 ± 7.7 m/s
speed of sound ([2]; x1 = 0.1023): 1268 ± 7.7 m/s
speed of sound ([2]; x1 = 0.1626): 1284 ± 7.8 m/s
speed of sound ([2]; x1 = 0.2321): 1303 ± 8 m/s
speed of sound ([2]; x1 = 0.3113): 1327 ± 8.1 m/s
speed of sound ([2]; x1 = 0.4024): 1351 ± 8.3 m/s
speed of sound ([2]; x1 = 0.5125): 1374 ± 8.4 m/s
speed of sound ([2]; x1 = 0.6426): 1395 ± 8.5 m/s
speed of sound ([2]; x1 = 0.8018): 1417 ± 8.7 m/s
speed of sound ([2]; x1 = 1): 1445 ± 8.8 m/s
mass density ([2]; x1 = 0.048): 796.8 ± 1.8 kg/m3
mass density ([2]; x1 = 0.1023): 823.3 ± 1.9 kg/m3
mass density ([2]; x1 = 0.1626): 849.3 ± 2 kg/m3
mass density ([2]; x1 = 0.2321): 874.7 ± 2 kg/m3
mass density ([2]; x1 = 0.3113): 900 ± 2.1 kg/m3
mass density ([2]; x1 = 0.4024): 924.7 ± 2.2 kg/m3
mass density ([2]; x1 = 0.5125): 949.3 ± 2.3 kg/m3
mass density ([2]; x1 = 0.6426): 972.2 ± 2.3 kg/m3
mass density ([2]; x1 = 0.8018): 995.6 ± 2.4 kg/m3
mass density ([2]; x1 = 1): 1020 ± 2.5 kg/m3

CC#N [acetonitrile]
mass density [1]: 770.6 ± 1.7 kg/m3
speed of sound [1]: 1239 ± 7.6 m/s

CC#N [acetonitrile] + CCC(=O)c1ccccc1
speed of sound ([2]; x2 = 0): 1239 ± 7.6 m/s
mass density ([2]; x2 = 0): 770.6 ± 1.7 kg/m3

CC(=O)c1ccc(Cl)cc1 [4'-chloroacetophenone]
mass density [1]: 1181.3 ± 11 kg/m3
speed of sound [1]: 1390 ± 8.5 m/s

CCC(=O)c1ccccc1 [ethyl phenyl ketone] + CC#N
speed of sound ([2]; x1 = 0.0418): 1250 ± 7.6 m/s
speed of sound ([2]; x1 = 0.0922): 1264 ± 7.7 m/s
speed of sound ([2]; x1 = 0.1459): 1279 ± 7.8 m/s
speed of sound ([2]; x1 = 0.2084): 1296 ± 7.9 m/s
speed of sound ([2]; x1 = 0.2864): 1314 ± 8 m/s
speed of sound ([2]; x1 = 0.3757): 1335 ± 8.2 m/s
speed of sound ([2]; x1 = 0.4796): 1357 ± 8.3 m/s
speed of sound ([2]; x1 = 0.6093): 1381 ± 8.4 m/s
speed of sound ([2]; x1 = 0.7791): 1406 ± 8.6 m/s
speed of sound ([2]; x1 = 1): 1432 ± 8.8 m/s
mass density ([2]; x1 = 0.0418): 793.4 ± 1.8 kg/m3
mass density ([2]; x1 = 0.0922): 817.8 ± 1.9 kg/m3
mass density ([2]; x1 = 0.1459): 841.2 ± 1.9 kg/m3
mass density ([2]; x1 = 0.2084): 864.9 ± 2 kg/m3
mass density ([2]; x1 = 0.2864): 889.8 ± 2.1 kg/m3
mass density ([2]; x1 = 0.3757): 913.6 ± 2.2 kg/m3
mass density ([2]; x1 = 0.4796): 936 ± 2.2 kg/m3
mass density ([2]; x1 = 0.6093): 957.5 ± 2.3 kg/m3
mass density ([2]; x1 = 0.7791): 978.6 ± 2.4 kg/m3
mass density ([2]; x1 = 1): 1000.6 ± 2.5 kg/m3

CC(=O)c1ccccc1 [acetophenone]
mass density [1]: 1020 ± 2.5 kg/m3
speed of sound [1]: 1445 ± 8.8 m/s

CCC(=O)c1ccccc1 [ethyl phenyl ketone]
mass density [1]: 1000.6 ± 2.5 kg/m3
speed of sound [1]: 1432 ± 8.8 m/s

CC#N [acetonitrile] + CC(=O)c1ccccc1
speed of sound ([2]; x2 = 0): 1239 ± 7.6 m/s
mass density ([2]; x2 = 0): 770.6 ± 1.7 kg/m3

CC(=O)c1ccc(Cl)cc1 [4'-chloroacetophenone] + CC#N
speed of sound ([2]; x1 = 0.092): 1256 ± 7.7 m/s
speed of sound ([2]; x1 = 0.1488): 1266 ± 7.7 m/s
speed of sound ([2]; x1 = 0.2128): 1278 ± 7.8 m/s
speed of sound ([2]; x1 = 0.2863): 1292 ± 7.9 m/s
speed of sound ([2]; x1 = 0.3792): 1310 ± 8 m/s
speed of sound ([2]; x1 = 0.4876): 1330 ± 8.1 m/s
speed of sound ([2]; x1 = 0.6196): 1350 ± 8.3 m/s
speed of sound ([2]; x1 = 0.7847): 1372 ± 8.4 m/s
speed of sound ([2]; x1 = 1): 1390 ± 8.5 m/s
mass density ([2]; x1 = 0.092): 857.2 ± 7.2 kg/m3
mass density ([2]; x1 = 0.1488): 900.3 ± 7.7 kg/m3
mass density ([2]; x1 = 0.2128): 941.5 ± 8.1 kg/m3
mass density ([2]; x1 = 0.2863): 982.6 ± 8.5 kg/m3
mass density ([2]; x1 = 0.3792): 1025.8 ± 9 kg/m3
mass density ([2]; x1 = 0.4876): 1077.5 ± 9.5 kg/m3
mass density ([2]; x1 = 0.6196): 1106.9 ± 9.8 kg/m3
mass density ([2]; x1 = 0.7847): 1145 ± 10 kg/m3
mass density ([2]; x1 = 1): 1181.3 ± 11 kg/m3

CC#N [acetonitrile] + CC(=O)c1ccc(C)cc1
speed of sound ([2]; x2 = 0): 1239 ± 7.6 m/s
mass density ([2]; x2 = 0): 770.6 ± 1.7 kg/m3

CC(=O)c1ccc(C)cc1 [4'-methylacetophenone] + CC#N
speed of sound ([2]; x1 = 0.0872): 1272 ± 7.8 m/s
speed of sound ([2]; x1 = 0.1449): 1288 ± 7.9 m/s
speed of sound ([2]; x1 = 0.2088): 1305 ± 8 m/s
speed of sound ([2]; x1 = 0.2823): 1323 ± 8.1 m/s
speed of sound ([2]; x1 = 0.3756): 1344 ± 8.2 m/s
speed of sound ([2]; x1 = 0.4771): 1365 ± 8.3 m/s
speed of sound ([2]; x1 = 0.6125): 1389 ± 8.5 m/s
speed of sound ([2]; x1 = 0.7811): 1413 ± 8.6 m/s
speed of sound ([2]; x1 = 1): 1438 ± 8.8 m/s
mass density ([2]; x1 = 0.0872): 816 ± 1.9 kg/m3
mass density ([2]; x1 = 0.1449): 841.6 ± 1.9 kg/m3
mass density ([2]; x1 = 0.2088): 865.3 ± 2 kg/m3
mass density ([2]; x1 = 0.2823): 888.1 ± 2.1 kg/m3
mass density ([2]; x1 = 0.3756): 912.4 ± 2.1 kg/m3
mass density ([2]; x1 = 0.4771): 934 ± 2.2 kg/m3
mass density ([2]; x1 = 0.6125): 955.6 ± 2.3 kg/m3
mass density ([2]; x1 = 0.7811): 976.1 ± 2.4 kg/m3
mass density ([2]; x1 = 1): 996.3 ± 2.5 kg/m3
